Measured values: patent publication US10440955B2, “Methods comprising a biocidal polyamine” (Curza Global, LLC, priority 2013, dated 2019)
Where a name gives a salt, the structure may show the parent alone. Read-outs that look alike come from different tables or passages of the source.

Legend:
[1] = test system: P. aeruginosa; assay: MIC, 96-well CAMHB, 10^5 to 10^2 CFU/mL in 24 hours; format: cell-based, Pseudomonas aeruginosa; conditions: for MIC: Pseudomonas aeruginosa
Outline: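 Broth microdilution in CAMHB with about 5×10^5 CFU/mL inoculum, incubated 24 h at 37 °C with graded polyamine compound concentrations. Surviving CFU/mL determined by plating each well on TSA for 24 h at 37 °C; n=8 per concentration.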

[2] = test system: MRSA biofilms; assay: MBEC, MBEC Inoculation Tray (Innovotech), to 10^2 CFU/peg in 24 hours; format: cell-based, Staphylococcus aureus
Description: To determine the MBEC of each polyamine compound, the MBEC Inoculation Tray by Innovotech, formerly known as the Calgary biofilm device, was used. Within this device, biofilms grow on the surface of polystyrene pegs, 96 of which are attached to a lid. These pegs are inserted into a flat bottom 96-well plate. In this instance, the MBEC of a molecule was defined as the concentration of compound (in μg/mL) required to reduce 10^5 or 10^6 CFU/peg (biofilm levels varied by isolate) to 10^2 CFU/peg in a 24-hour period.
Following the manufacturer's guidelines, biofilms were grown on the surface of each peg by first making a 0.5 McFarland of each isolate. The 0.5 McFarland was diluted 1:100 in CAMHB. Into each well of a flat bottom 96-well plate, 150 μL of broth were pipetted. The plate was shaken at 100 rpm for 24 hours (P. aeruginosa and A. baumannii) or 48 hours (MRSA). The pegs were then placed into a separate flat bottom 96-well plate for 10 seconds with 200 μL of phosphate buffered saline (PBS) in each well to remove nonadherent cells. The lid was then placed into a 96-well plate that contained varying concentrations of antimicrobial with 200 μL per well. The plate was incubated for 24 hours at 37° C. after which time 100 μL of broth were plated on TSA. TSA plates were incubated 24 hours at 37° C. and the number of CFU counted to calculate the CFU/peg. In this instance, the MBEC was defined as the concentration of antimicrobial required to reduce 10^5 or 10^6 CFU/peg to 10^2 CFU/peg in a 24 hour period.
MBEC data were collected using the MBEC Inoculation Tray by Innovotech. The MBEC was defined in these preliminary results as the concentration of antimicrobial required to reduce 10^5 or 10^6 CFU/peg to 10^2 CFU/peg in a 24-hour period.

[3] = test system: MRSA biofilms; assay: EBEC, high number biofilms on PEEK membranes, 10^9 to 10^2 CFU/PEEK membrane in 24 hours; format: cell-based, Staphylococcus aureus
Protocol: In addition to determining the MIC and the MBEC of polyamine compounds against planktonic bacteria and low number biofilms, our group wanted to determine the efficacy of polyamine compounds against high number biofilms. To do so, biofilms were grown on the surface of polyetheretherketone (PEEK) membranes using a membrane biofilm reactor. This reactor is similar to the CDC biofilm reactor, but rather than growing biofilms on coupon surfaces, the reactor was modified to hold PEEK membranes. In short, to grow biofilms within this system, 500 mL of brain heart infusion (BHI) broth were inoculated with 1 mL of a 0.5 McFarland. The reactor was placed on a hot plate set at 34° C. and the bacteria were grown under batch conditions for 24 hours. Following this protocol, biofilms typically grow to 10^9 CFU/PEEK membrane. […] A solution of 10% BHI was then flowed through the reactor at a rate of 6.94 mL/min for an additional 24 hours. PEEK membranes were then removed and placed into 2 mL of CAMHB that contained a desired concentration of polyamine compound or antibiotic. The EBEC was defined as the concentration of antimicrobial required to reduce a biofilm from approximately 10^9 CFU/PEEK membrane to approximately 10^2 CFU/PEEK membrane in a 24-hour period.
In addition to determining the MIC and the MBEC of compounds against planktonic bacteria and low number biofilms, the efficacy of the compounds of the invention against high number biofilms is determined. To do so, biofilms are grown on the surface of PEEK membranes using a membrane biofilm reactor (Williams, D. L., Haymond, B. S. & Bloebaum, R. D. Use of delrin plastic in a modified CDC biofilm reactor. Res J Microbiol 6, 425-429 (2011); Williams, D. L., Woodbury, K. L., Haymond, B. S., Parker, A. E. & Bloebaum, R. D. A modified CDC biofilm reactor to produce mature biofilms on the surface of PEEK membranes for an in vivo animal model application. Curr Microbiol 62, 1657-1663 (2011); Williams, D. L. et al., In Vivo Efficacy of a Silicone—Cationic Steroid Antimicrobial Coating to Prevent Implant-Related Infection. Biomaterials 33, 8641-8656 (2012); Williams, D. L. et al., Experimental model of biofilm implant-related osteomyelitis to test combination biomaterials using biofilms as initial inocula. J Biomed Mat Res A 100, 1888-1900 (2012)). This reactor is similar to the CDC biofilm reactor, but rather than growing biofilms on coupon surfaces, the reactor was modified to hold PEEK membranes. In short, to grow biofilms within this system, 500 mL of brain heart infusion (BHI) broth is inoculated with 1 mL of a 0.5 McFarland. The reactor is placed on a hot plate set at 34° C. and the bacteria grown under batch conditions for 24 hours. A solution of 10% BHI will then be flowed through the reactor at a rate of 6.94 mL/min for an additional 24 hours. Following this protocol, biofilms typically grow to 10^9 CFU/PEEK membrane. PEEK membranes is removed and placed into 2 mL of CAMHB that contain a desired concentration of the test compound. The EBEC is defined as the concentration of antimicrobial required to reduce a biofilm from approximately 10^9 CFU/PEEK membrane to approximately 10^2 CFU/PEEK membrane in a 24-hour period.
EBEC data were collected to determine the efficacy of CZ-52, CZ-58 and traditional antibiotics against high number biofilms containing approximately 10^9 CFU grown on the surface of a polyetheretherketone (PEEK) membrane.

SMILES	MIC (P. aeruginosa) ([1]; Table 5)	MBEC μg/mL (μM) MRSA ([2]; Table 4) [µg/mL]	MBEC μg/mL (μM) MRSA ([2]; Table 4, value in parentheses)	EBEC μg/mL (μM) MRSA ([3]; Table 4)	reduction of biofilms of MRSA ([3]; at 25,000 μg/mL, 24-hour period) [log10 unit]	MIC ([1]; Table 3A c2, read-out: MICs (μg/mL): P. aeruginosa) [µg/mL]	MIC ([1]; Table 5, read-out: MIC (P. aeruginosa)) [µM]	EBEC μg/mL (μM) MRSA ([3]; Table 4, value in parentheses)	MIC ([1]; read-out: MICs (μg/mL): P. aeruginosa, Table 3A c2) [µg/mL]
CC(C)CNCCCNCCCNCc1cc(CNCCCNCCCNCC(C)C)cc(-c2ccccc2)c1 [CZ-86, N^1,N^1′-([1,1′-biphenyl]-3,5-diylbis(methylene))bis(N^3-(3-(isobutylamino)propyl)propane-1,3-diamine), hydrochloride salt]	++ to +++	–	–	–	–	–	–	–	–
CN[C@H](CC(C)C)C(=O)N[C@H]1C(=O)N[C@@H](CC(N)=O)C(=O)N[C@H]2C(=O)N[C@H]3C(=O)N[C@H](C(=O)N[C@H](C(=O)O)c4cc(O)cc(O)c4-c4cc3ccc4O)[C@H](O)c3ccc(c(Cl)c3)Oc3cc2cc(c3O[C@@H]2O[C@H](CO)[C@@H](O)[C@H](O)[C@H]2O[C@H]2C[C@](C)(N)[C@H](O)[C@H](C)O2)Oc2ccc(cc2Cl)[C@H]1O [vancomycin, reference compound]	–	>500	(>345) μM	>>25,000 μg/mL	< 1	–	–	–	–
NCCCNCCCNCc1ccccc1 [CZ-7, benzylnorspermidine]	–	>500	(>2,259) μM	>5,000 μg/mL	–	> 500	> 100	(>22,590) μM	–
NCCCNCCCNCc1cc(CNCCCNCCCN)cc(-c2ccccc2)c1 [CZ-58, N^1,N^1′-([1,1′-biphenyl]-3,5-diylbis(methylene))bis(N^3-(3-ammoniopropyl)propane-1,3-diaminium) chloride]	++ to +++	30	(68) μM	1,500 μg/mL	–	–	–	–	–
NCCCNCCCNCc1cccc(CNCCCNCCCN)c1 [CZ-25, N^1,N^1′-(1,3-phenylenebis(methylene))bis(N3-(3-ammoniopropyl)propane-1,3-diaminium) chloride]	–	25	(69) μM	>5,000 μg/mL	–	–	–	–	500
NCCCNCCCNCc1cc(CNCCCNCCCN)cc(CNCCCNCCCN)c1 [CZ-52, N^1,N^1′,N^1″-(benzene-1,3,5-triyltris(methylene))tris(N^3-(3-aminopropyl)propane-1,3-diamine), hydrochloride salt]	–	20	(40) μM	250 µg/mL	–	–	–	(500) μM	–
